Laboratory results: EP1082127B1 (WARNER-LAMBERT COMPANY LLC, priority 1998, dated 1999)
Structures can show the parent of a compound that is named as a salt.

Columns and labels:
ICE [1] = target: T1, ICE (Homo sapiens, UniProt P29466); experiment: ICE Colorimetric Dose-Response (IC50) Assay; format: biochemical; settings: 60 minutes preincubation, 50 µM Ac-Tyr-Val-Ala-Asp-pNA, 25°C
T1 sequence (P29466 120-297 limits assumed): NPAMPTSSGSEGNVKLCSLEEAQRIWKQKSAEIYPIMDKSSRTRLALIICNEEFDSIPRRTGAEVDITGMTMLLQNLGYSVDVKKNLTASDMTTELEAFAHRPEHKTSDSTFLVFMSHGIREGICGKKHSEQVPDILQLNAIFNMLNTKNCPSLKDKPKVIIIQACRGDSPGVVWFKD
T1 sequence (P29466 317-404 limits assumed): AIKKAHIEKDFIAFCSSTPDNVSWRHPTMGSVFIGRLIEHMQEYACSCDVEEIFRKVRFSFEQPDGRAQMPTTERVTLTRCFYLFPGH
Protocol: (§1) Diluted inhibitor stocks are prepared by two-fold serial dilution from a primary stock whose concentration is selected (based on screening results or on prior attempts at IC50 evaluation) to achieve approximately 95% inhibition in the most concentrated well. Aliquots of each dilution are transferred to a microtitre plate in triplicate.
(§2) ICE enzyme is diluted to approximately 24 nM in HGE buffer (100 mM Hepes pH 7.5, 0.5 mM EDTA, 20% glycerol, 0.1% Bovine Serum Albumin (BSA), and activated by adding dithiothreitol (DTT) to a final concentration of 5 mM. The activated enzyme is then aliquoted into wells containing inhibitor or vehicle, and the plate is preincubated for 60 minutes at ambient temperature. Substrate (Ac-Tyr-Val-Ala-Asp-pNA) is added to each well to a final concentration of 50 µM, and plates are placed in the microtitre plate-reader thermostated to 25°C. Beginning 5 minutes after addition of substrate, absorbance (405 nm) of wells is monitored for 1 hour, and activity is calculated as the mean rate of change in absorbance during this interval.

[2] = system: IL-1β production in human peripheral blood mononuclear cells (PBMCs); experiment: PBMC Cellular Assay - IC50 Determinations (LPS-stimulated IL-1β production, ELISA); format: cell-based; settings: human PBMCs stimulated overnight with 10 ng/mL LPS, mature IL-1β by ELISA
Excerpt: Further evidence that compounds of Formula I are inhibitors of ICE is provided by their ability to inhibit IL-1β production in human peripheral blood mononuclear cells (PBMCs) as described herein. PBMCs are isolated from heparinized blood by centrifugation over a ficoll cushion, then washed three times with phosphate-buffered saline. PBMCs are suspended in a medium containing RPMI 1640 with glutamine, penicillin, streptomycin, and 2% human AB serum, then plated at 10^6 cells per well in 96-well flat bottom plates. PBMCs are stimulated overnight with 10 ng/mL of lipopolysaccharide (LPS, E. coli strain 0111:B4; Calbiochem) in the presence or absence of a compound of Formula I. Medium is harvested, and the level of mature IL-1β was determined using an ELISA kit from R&D Systems. Cells were cultured for an additional 4 hours in the presence of 3-(4,5-dimethylthiazol-2-yl)-2,5-diphenyltetrazolium bromide (MTT) to determine viability.

Ich-2 enzyme = target: T2, Ich-2 enzyme (Homo sapiens, UniProt P49662); experiment: Ich-2 Colorimetric Dose-Response (IC50) Assay; format: biochemical; settings: enzyme 64 nM, 60 µM Ac-Leu-Glu-Val-Asp-pNA; read-out: ICH2 IC50 (Caspase 4)
T2 sequence (P49662 81-270 limits assumed): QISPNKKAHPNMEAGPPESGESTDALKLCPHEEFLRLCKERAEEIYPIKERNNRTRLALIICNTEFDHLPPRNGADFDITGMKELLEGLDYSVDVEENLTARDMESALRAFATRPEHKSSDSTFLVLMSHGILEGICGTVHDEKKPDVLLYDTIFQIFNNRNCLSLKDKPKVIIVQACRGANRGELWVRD
T2 sequence (P49662 290-377 limits assumed): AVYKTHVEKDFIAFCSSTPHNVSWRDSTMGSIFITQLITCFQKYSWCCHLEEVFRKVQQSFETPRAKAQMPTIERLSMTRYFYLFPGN
Protocol: as §1, §2
Inhibition of Ich-2 enzyme is assayed as described above for ICE, except that enzyme is used at 64 nM, and 60 µM of the Ich-2-specific substrate Ac-Leu-Glu-Val-Asp-pNA is used instead of the ICE substrate Ac-Tyr-Val-Ala-Asp-pNA.

ICE [3] = target: T1, ICE; experiment: ICE inhibition, Ki determination (fluorogenic substrate Ac-Tyr-Val-Ala-Asp-AMC); format: biochemical; settings: 15 µM Ac-Tyr-Val-Ala-Asp-AMC, 0.5 nM enzyme, 30°C, reversible competitive model
Protocol: Serial dilutions of each compound of the invention are prepared using an initial 8-fold dilution of a DMSO stock into HGE (100 mM HEPES, 20% glycerol v/v, 0.5 mM EDTA), followed by seven serial 2-fold dilutions into HGE + 12.5% DMSO. Ten microliters of diluted stocks or of vehicle (HGE + 12.5% DMSO) are placed in triplicate onto a 96-well microtiter plate. Enzyme is diluted into assay buffer (HGE, 5 mM DTT, 15 µM Ac-Tyr-Val-Ala-Asp-AMC; 0.5 nM final enzyme concentration, pre-warmed to 30°C), and this reaction mixture is added to the plate at 90 µL/well. Substrate hydrolysis is monitored for 300 seconds at 30°C using 385 and 460 nm excitation and emission filters, respectively. Triplicate curves are averaged, and slopes are evaluated by linear regression. To evaluate Ki, plots of percent inhibition vs inhibitor concentration are fit by non-linear regression to a reversible, competitive model: [formula] where the competition factor is (1 + [S]/KM) = 2.

## CC(C)C(CC(=O)NCCc1cn(C)c2ccc(F)cc12)C(=O)NC(C=O)CC(=O)O (stereo not drawn) [Example 55, 3-(2-{[2-(5-Fluoro-1-methyl-1H-indol-3-yl)-ethylcarbamoyl]-methyl}-3-methyl-butyrylamino)-4-oxo-butyric acid]
ICE [1]
  IC50: 0.037 µM
[2]
  IC50: 5.3 µM
Ich-2 enzyme
  IC50: 11.5 µM
ICE [3]
  Ki: 0.0079 µM

## CC(C)C(CC(N)=O)C(=O)NC(CC(=O)O)C(=O)CNS(=O)(=O)CC12CCC(CC1=O)C2(C)C (stereo not drawn) [Example 2, 3-(2-Carbamoylmethyl-3-methyl-butyrylamino)-5-(7,7-dimethyl-2-oxo-bicyclo[2.2.1]hept-1-ylmethanesulfonylamino)-4-oxo-pentanoic acid]
ICE [1]
  IC50: 0.79 µM
[2]
  IC50: 6.25 µM
Ich-2 enzyme
  IC50: 3.31 µM
ICE [3]
  Ki: 0.106 µM

## CC(C)C(CC(=O)NCCCc1ccccc1)C(=O)NC(CC(=O)O)C(=O)COc1ccc2oc(=O)ccc2c1 (stereo not drawn) [Example 13, 3-{3-Methyl-2-[(3-phenyl-propylcarbamoyl)-methyl]-butyrylamino}-4-oxo-5-(2-oxo-2H-chromen-6-yloxy)-pentanoic acid]
ICE [1]
  IC50: 0.052 µM
[2]
  IC50: 2.35 µM
Ich-2 enzyme
  IC50: 0.25 µM
ICE [3]
  Ki: 0.0067 µM

## CC(C)C(CC(=O)NO)C(=O)NC(CC(=O)O)C(=O)CNS(=O)(=O)CC12CCC(CC1=O)C2(C)C (stereo not drawn) [Example 15, 5-(7,7-Dimethyl-2-oxo-bicyclo[2.2.1]hept-1-ylmethanesulfonylamino)-3-(2-hydroxycarbamoylmethyl-3-methyl-butyrylamino)-4-oxo-pentanoic acid]
ICE [1]
  IC50: 2.05 µM
[2]
  IC50: 17.5 µM
Ich-2 enzyme
  IC50: 13.1 µM
ICE [3]
  Ki: 0.441 µM

## CC(C)C(CC(N)=O)C(=O)NC(CC(=O)O)C(=O)CNS(=O)(=O)CCc1ccccc1 (stereo not drawn) [Example 4, 3-(2-Carbamoylmethyl-3-methyl-butyrylamino)-4-oxo-5-(2-phenyl-ethanesulfonyl-amino)-pentanoic acid]
ICE [1]
  IC50: 16.8 µM
[2]
  IC50: 65 µM
Ich-2 enzyme
  IC50: 9.72 µM
ICE [3]
  Ki: 2.18 µM

## CC(C)C(CC(=O)NCCn1cnc2ccccc21)C(=O)NC(CC(=O)O)C(=O)CNS(=O)(=O)CC12CCC(CC1=O)C2(C)C (stereo not drawn) [Example 30, 3-{2-[(2-Benzoimidazol-1-yl-ethylcarbamoyl)-methyl]-3-methyl-butyrylamino}-5-(7,7-dimethyl-2-oxo-bicyclo[2.2.1]hept-1-ylmethanesulfonylamino)-4-oxo-pentanoic acid]
ICE [1]
  IC50: 0.0052 µM
[2]
  IC50: 0.41 µM
Ich-2 enzyme
  IC50: 3.14 µM
ICE [3]
  Ki: 0.0011 µM

## CC(C)C(CC(=O)NCCc1cn(C)c2ccccc12)C(=O)NC(C=O)CC(=O)O (stereo not drawn) [Example 54, 3-(3-Methyl-2-{[2-(1-methyl-1H-indol-3-yl)-ethylcarbamoyl]-methyl}-butyrylamino)-4-oxo-butyric acid]
ICE [1]
  IC50: 0.037 µM
[2]
  IC50: 2.85 µM
Ich-2 enzyme
  IC50: 11.1 µM
ICE [3]
  Ki: 0.004 µM

## CC(C)C(CC(=O)NCCn1nnc2ccccc21)C(=O)NC(C=O)CC(=O)O (stereo not drawn) [Example 58, 3-{2-[(2-Benzotriazol-1-yl-ethylcarbamoyl)-methyl]-3-methyl-butyrylamino}-4-oxo-butyric acid]
ICE [1]
  IC50: 0.336 µM
[2]
  IC50: 7.75 µM
Ich-2 enzyme
  IC50: 10.6 µM
ICE [3]
  Ki: 0.0318 µM

## CC(C)C(CC(=O)NCCOc1ccccc1)C(=O)NC(CC(=O)O)C(=O)CNS(=O)(=O)CC12CCC(CC1=O)C2(C)C (stereo not drawn) [Example 9, 5-(7,7-Dimethyl-2-oxo-bicyclo[2.2.1]hept-1-ylmethanesulfonylamino)-3-{3-methyl-2-[(2-phenoxy-ethylcarbamoyl)-methyl]-butyrylamino}-4-oxo-pentanoic acid]
ICE [1]
  IC50: 0.053 µM
[2]
  IC50: 2.1 µM
Ich-2 enzyme
  IC50: 4.22 µM
ICE [3]
  Ki: 0.0234 µM

## CC(C)[C@H](CC(=O)NCCn1cnc2cc(Cl)c(Cl)cc21)C(=O)NC(C=O)CC(=O)O (stereo partly drawn) [Example 56, 3-(2-{[2-(5,6-Dichloro-benzoimidazol-1-yl)-ethylcarbamoyl]-methyl}-3-methyl-butyrylamino)-4-oxo-butyric acid]
ICE [1]
  IC50: 0.0286 µM
[2]
  IC50: 3.25 µM
Ich-2 enzyme
  IC50: 4.02 µM
ICE [3]
  Ki: 0.0044 µM

## Cc1cc2ncn(CCNC(=O)CC(C(=O)NC(C=O)CC(=O)O)C(C)C)c2cc1C (stereo not drawn) [Example 23, 3-(2-{[2-(5,6-Dimethyl-benzoimidazol-1-yl)-ethylcarbamoyl]-methyl}-3-methyl-butyrylamino)-4-oxo-butyric acid, trifluoroacetate salt]
ICE [1]
  IC50: 0.0145 µM
[2]
  IC50: 3.6 µM
Ich-2 enzyme
  IC50: 4.43 µM
ICE [3]
  Ki: 0.0029 µM

## CC(C)C(CC(=O)NCCc1ccccc1)C(=O)NC(CC(=O)O)C(=O)CNS(=O)(=O)CC12CCC(CC1=O)C2(C)C (stereo not drawn) [Example 3, 5-(7,7-Dimethyl-2-oxo-bicyclo[2.2.1]hept-1-ylmethanesulfonylamino)-3-[3-methyl-2-(phenethylcarbamoyl-methyl)-butyrylamino]-4-oxo-pentanoic acid]
ICE [1]
  IC50: 0.4 µM
[2]
  IC50: 3 µM
Ich-2 enzyme
  IC50: 4.65 µM
ICE [3]
  Ki: 0.045 µM

## Cc1cccc2c(CCNC(=O)CC(C(=O)NC(CC(=O)O)C(=O)CNS(=O)(=O)CC34CCC(CC3=O)C4(C)C)C(C)C)c[nH]c12 (stereo not drawn) [Example 19, 5-(7,7-Dimethyl-2-oxo-bicyclo[2.2.1]hept-1-ylmethanesulfonylamino)-3-(3-methyl-2-{(2-(7-methyl-1H-indol-3-yl)-ethylcarbamoyl]-methyl}-butyrylamino)-4-oxo-pentanoic acid]
ICE [1]
  IC50: 0.0085 µM
[2]
  IC50: 0.4 µM
Ich-2 enzyme
  IC50: 2.38 µM
ICE [3]
  Ki: 0.0009 µM

## CC(C)C(CC(=O)NCCCc1ccc2ccccc2n1)C(=O)NC(CC(=O)O)C(=O)CNS(=O)(=O)CC12CCC(CC1=O)C2(C)C (stereo not drawn) [Example 27, 5-(7,7-Dimethyl-2-oxo-bicyclo[2.2.1]hept-1-ylmethanesulfonylamino)-3-{3-methyl-2-[(3-quinolin-2-yl-propylcarbamoyl)-methyl]-butyrylamino}-4-oxo-pentanoic acid]
ICE [1]
  IC50: 0.147 µM
[2]
  IC50: 1 µM
Ich-2 enzyme
  IC50: 9.93 µM
ICE [3]
  Ki: 0.0175 µM

## CC(C)C(CC(=O)NCCc1ccncc1)C(=O)NC(CC(=O)O)C(=O)CNS(=O)(=O)CC12CCC(CC1=O)C2(C)C (stereo not drawn) [Example 32, 5-(7,7-Dimethyl-2-oxo-bicyclo[2.2.1]hept-1-ylmethanesulfonylamino)-3-{3-methyl-2-[(2-pyridin-4-yl-ethylcarbamoyl)-methyl]-butyrylamino}-4-oxo-pentanoic acid]
ICE [1]
  IC50: 0.458 µM
[2]
  IC50: 3.3 µM
Ich-2 enzyme
  IC50: 14.1 µM
ICE [3]
  Ki: 0.026 µM
